This experiment has as its target T1, LXRβ (Homo sapiens, UniProt P55055).
T1 construct: Co-transfection expression plasmids, comprising full-length LXRα (pCMX-h LXRα[…] or LXRβ (pCMX-hLXRβ)); expressed in transfected cells; host or cells: CV-1 African Green Monkey Kidney Cells
T1 sequence (P55055 1-460): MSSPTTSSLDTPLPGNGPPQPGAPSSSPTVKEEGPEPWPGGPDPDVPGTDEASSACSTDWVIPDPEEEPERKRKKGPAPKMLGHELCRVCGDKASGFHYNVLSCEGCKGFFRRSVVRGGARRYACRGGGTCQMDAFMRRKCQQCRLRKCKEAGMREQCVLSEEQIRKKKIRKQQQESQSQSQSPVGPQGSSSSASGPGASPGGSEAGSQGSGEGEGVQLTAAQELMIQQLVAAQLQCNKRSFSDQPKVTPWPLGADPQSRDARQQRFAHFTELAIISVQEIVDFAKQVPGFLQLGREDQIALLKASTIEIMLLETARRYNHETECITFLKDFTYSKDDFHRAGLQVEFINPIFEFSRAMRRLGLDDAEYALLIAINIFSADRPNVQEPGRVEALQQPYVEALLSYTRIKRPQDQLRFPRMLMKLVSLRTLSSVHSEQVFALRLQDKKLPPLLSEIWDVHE
T1 sequence (P19793 1-462 partner): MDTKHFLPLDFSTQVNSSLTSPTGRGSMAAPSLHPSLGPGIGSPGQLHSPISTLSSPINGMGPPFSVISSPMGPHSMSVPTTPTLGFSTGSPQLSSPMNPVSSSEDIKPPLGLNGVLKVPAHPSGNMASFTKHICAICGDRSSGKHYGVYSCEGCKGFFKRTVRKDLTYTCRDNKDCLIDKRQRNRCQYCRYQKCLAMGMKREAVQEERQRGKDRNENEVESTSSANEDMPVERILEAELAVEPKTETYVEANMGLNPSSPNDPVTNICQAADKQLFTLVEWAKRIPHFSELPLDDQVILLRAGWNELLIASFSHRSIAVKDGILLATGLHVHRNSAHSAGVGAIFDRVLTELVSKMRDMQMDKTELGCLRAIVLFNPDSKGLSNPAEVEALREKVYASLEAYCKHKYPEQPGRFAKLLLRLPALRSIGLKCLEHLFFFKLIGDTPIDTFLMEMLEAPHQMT
Briefly: Co-transfection assay (LXRE luciferase reporter), LXRβ. The experiment is classed as cell-based. The note with it: for EC50: CV-1 cells transfected with pCMX-hLXRβ and LXREx1-Tk-Luciferase, 20 hours incubation; for Emax: LXRβ co-transfection, relative to high control 1-(2,4-difluorobenzyl)-2-oxo-6-(4-phenoxyphenyl)-4-(trifluoromethyl)-1,2-dihydropyridine-3-carbonitrile, read-out: % Efficacy. The method in brief:
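CV-1 cells transiently co-transfected with full-length human LXRβ (or LXRα), LXREx1-Tk-luciferase reporter and β-galactosidase control; compound added (10 μM final in single-point, 11-point ½-log curves, ≤0.5% DMSO) for 20 h at 37 °C. Luciferase read; EC50 from four-parameter fit, efficacy relative to reference agonist high control.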

This passage reports EC50 and Emax results from patent US9834542B2, “LXR modulators” (BRISTOL-MYERS SQUIBB COMPANY, priority 2013, dated 2017).

As a reminder, the EC50 is the midpoint of the concentration-response curve.

Regarding `Cc1nc(C(F)(F)F)cn1-c1ccc(-c2cccc(S(C)(=O)=O)c2)cc1-n1nncc1C(=O)c1ccc(Cl)cc1` [Example 10, (4-chlorophenyl)(1-{3′-(methylsulfonyl)-4-[2-methyl-4-(trifluoromethyl)-1H-imidazol-1-yl]biphenyl-3-yl}-1H-1,2,3-triazol-5-yl)methanone], a half-maximal effect (EC50) was put at 541 nM and the Emax was determined as 62%.

For `Cc1nc(C(F)(F)F)cn1-c1ccc(-c2cccc(S(C)(=O)=O)c2)cc1-n1nncc1-c1ccc(C(C)C)cc1` [Example 72, 5-[4-(1-methylethyl)phenyl]-1-{3′-(methylsulfonyl)-4-[2-methyl-4-(trifluoromethyl)-1H-imidazol-1-yl]biphenyl-3-yl}-1H-1,2,3-triazole], the EC50 amounted to 473 nM and the Emax was 80%.

Regarding `CS(=O)(=O)c1cccc(-c2ccc(-n3cnc(C(F)F)c3)c(-n3nncc3-c3ccc(OC(F)(F)F)cc3)c2)c1` [Example 170, 1-{4-[4-(difluoromethyl)-1H-imidazol-1-yl]-3′-(methylsulfonyl)biphenyl-3-yl}-5-{4-[(trifluoromethyl)oxy]phenyl}-1H-1,2,3-triazole], a half-maximal response (EC50) required 3330 nM and the Emax is 92%.

As to `Cc1nc(-c2cc(-c3cc(F)c(CO)c(S(C)(=O)=O)c3)ccc2-n2cc(C(F)(F)F)nc2C)c(-c2ccc(OC3CCCC3)nc2)o1` [Example 411, (3′-(5-(6-(cyclopentyloxy)pyridin-3-yl)-2-methyloxazol-4-yl)-3-fluoro-4′-(2-methyl-4-(trifluoromethyl)-1H-imidazol-1-yl)-5-(methylsulfonyl)biphenyl-4-yl)methanol], a half-maximal response (EC50) required 255 nM and the Emax was 60%.

`Cc1nc(C(F)(F)F)cn1-c1ccc(-c2cc(F)c(CO)c(S(C)(=O)=O)c2)cc1-n1nncc1C1(c2ccc(Cl)cc2)CC1` [Example 106, (3′-{5-[1-(4-chlorophenyl)cyclopropyl]-1H-1,2,3-triazol-1-yl}-3-fluoro-5-(methylsulfonyl)-4′-[2-methyl-4-(trifluoromethyl)-1H-imidazol-1-yl]biphenyl-4-yl)methanol]: the EC50 came to 281 nM and the Emax stood at 48%.

In the case of `Cc1nc(C(F)(F)F)cn1-c1ccc(-c2cccc(S(C)(=O)=O)c2)cc1-n1nncc1-c1ccc(Cl)cc1` [Example 66, 5-(4-chlorophenyl)-1-{3′-(methylsulfonyl)-4-[2-methyl-4-(trifluoromethyl)-1H-imidazol-1-yl]biphenyl-3-yl}-1H-1,2,3-triazole], a half-maximal response (EC50) required 306 nM and the Emax turned out to be 98%.

As for `Cc1nc(C(F)(F)F)cn1-c1ccc(-c2cccc(S(C)(=O)=O)c2)cc1-n1nncc1-c1ccc(F)cc1` [Example 43, 5-(4-fluorophenyl)-1-{3′-(methylsulfonyl)-4-[2-methyl-4-(trifluoromethyl)-1H-imidazol-1-yl]biphenyl-3-yl}-1H-1,2,3-triazole], the response was half-maximal at 1140 nM (EC50) and the Emax stood at 85%.

With `Cc1nc(-c2ccc(OC(F)(F)F)cc2)c(-c2cc(-c3cc(F)c(CO)c(S(C)(=O)=O)c3)ccc2-n2cc(C(F)(F)F)nc2C)o1` [Example 603, (3-fluoro-3′-(2-methyl-4-(4-(trifluoromethoxy)phenyl)oxazol-5-yl)-4′-(2-methyl-4-(trifluoromethyl)-1H-imidazol-1-yl)-5-(methylsulfonyl)-[1,1′-biphenyl]-4-yl)methanol], a half-maximal response (EC50) required 40 nM and the Emax was found to be 91%.

For `Cc1nc(C(F)F)cn1-c1ccc(-c2cc(F)c(CO)c(S(C)(=O)=O)c2)cc1-n1nncc1C(C)c1ccc(Cl)cc1` (centres unmarked) [Example 134, [3′-{5-[1-(4-chlorophenyl)ethyl]-1H-1,2,3-triazol-1-yl}-4′-[4-(difluoromethyl)-2-methyl-1H-imidazol-1-yl]-3-fluoro-5-(methylsulfonyl)biphenyl-4-yl]methanol], the EC50 turned out to be 166 nM and the Emax turned out to be 68%.

Turning to `Cc1nc(-c2cc(-c3cccc(S(C)(=O)=O)c3)ccc2-n2cc(C#N)nc2C)c(-c2ccc3c(c2)OC(F)(F)O3)o1` [Example 371, 1-(3-(5-(2,2-difluorobenzo[d][1,3]dioxol-5-yl)-2-methyloxazol-4-yl)-3′-(methylsulfonyl)biphenyl-4-yl)-2-methyl-1H-imidazole-4-carbonitrile], the EC50 was 248 nM and the Emax turned out to be 45%.

`Cc1nc(-c2ccc3c(c2)OC(F)(F)O3)c(-c2cc(-c3cc(F)c(CO)c(S(C)(=O)=O)c3)ccc2-n2cc(C(F)(F)F)nc2C)o1` [Example 617, (3′-(4-(2,2-difluorobenzo[d][1,3]dioxol-5-yl)-2-methyloxazol-5-yl)-3-fluoro-4′-(2-methyl-4-(trifluoromethyl)-1H-imidazol-1-yl)-5-(methylsulfonyl)-[1,1′-biphenyl]-4-yl)methanol]: the EC50 turned out to be 37 nM and the Emax was determined as 84%.

Regarding `Cc1nc(C(F)(F)F)cn1-c1ccc(-c2cccc(S(C)(=O)=O)c2)cc1-n1nncc1-c1cccc(OC(F)F)c1` [Example 37, 5-{3-[(difluoromethyl)oxy]phenyl}-1-{3′-(methylsulfonyl)-4-[2-methyl-4-(trifluoromethyl)-1H-imidazol-1-yl]biphenyl-3-yl}-1H-1,2,3-triazole], a half-maximal effect (EC50) was put at 758 nM and the Emax stood at 96%.

For the compound `COc1cc(-c2oc(C)nc2-c2cc(-c3cccc(S(C)(=O)=O)c3)ccc2-n2cc(C(F)(F)F)nc2C)ccc1OC(F)F` [Example 380, 5-(4-(difluoromethoxy)-3-methoxyphenyl)-2-methyl-4-(4-(2-methyl-4-(trifluoromethyl)-1H-imidazol-1-yl)-3′-(methylsulfonyl)biphenyl-3-yl)oxazole], the midpoint of the response, the EC50, lay at 53 nM and the Emax came out at 91%.

As to `Cc1nc(C(F)(F)F)cn1-c1ccc(-c2cccc(S(C)(=O)=O)c2)cc1-c1oc(CCO)nc1-c1ccc2c(c1)OC(F)(F)O2` [Example 622, 2-(4-(2,2-difluorobenzo[d][1,3]dioxol-5-yl)-5-(4-(2-methyl-4-(trifluoromethyl)-1H-imidazol-1-yl)-3′-(methylsulfonyl)-[1,1′-biphenyl]-3-yl)oxazol-2-yl)ethanol], the concentration giving a half-maximal response (EC50) turned out to be 410 nM and the Emax was 85%.

As to `Cc1nc(-c2ccc(OC(F)(F)F)cc2)c(-c2cc(-c3ccc(CO)c(S(C)(=O)=O)c3)ccc2-n2cc(C(F)(F)F)nc2C)o1` [Example 607, (3′-(2-methyl-4-(4-(trifluoromethoxy)phenyl)oxazol-5-yl)-4′-(2-methyl-4-(trifluoromethyl)-1H-imidazol-1-yl)-3-(methylsulfonyl)-[1,1′-biphenyl]-4-yl)methanol], it took 46 nM to reach a half-maximal effect (EC50) and the Emax is 92%.

In the case of `Cc1nc(-c2cc(-c3cc(F)c(CO)c(S(C)(=O)=O)c3)ccc2-n2cc(C(F)(F)F)nc2C)c(-c2cccc(OC(F)(F)C(F)F)c2)o1` [Example 546, (3-fluoro-4′-(2-methyl-4-(trifluoromethyl)-1H-imidazol-1-yl)-3′-(2-methyl-5-(3-(1,1,2,2-tetrafluoroethoxy)phenyl)oxazol-4-yl)-5-(methylsulfonyl)-[1,1′-biphenyl]-4-yl)methanol], the midpoint of the response, the EC50, lay at 119 nM and the Emax was found to be 51%.
